Test results reported in ChEMBL document CHEMBL5291721, “A preclinical secondary pharmacology resource illuminates target-adverse drug reaction associations of marketed drugs” (Nat Commun, 2023).

Tests used:
[1] = target: D(3) dopamine receptor (Homo sapiens, UniProt P35462)
[2] = target: T1, Thromboxane A2 receptor (Homo sapiens, UniProt P21731)
T1 sequence (P21731 whole entry): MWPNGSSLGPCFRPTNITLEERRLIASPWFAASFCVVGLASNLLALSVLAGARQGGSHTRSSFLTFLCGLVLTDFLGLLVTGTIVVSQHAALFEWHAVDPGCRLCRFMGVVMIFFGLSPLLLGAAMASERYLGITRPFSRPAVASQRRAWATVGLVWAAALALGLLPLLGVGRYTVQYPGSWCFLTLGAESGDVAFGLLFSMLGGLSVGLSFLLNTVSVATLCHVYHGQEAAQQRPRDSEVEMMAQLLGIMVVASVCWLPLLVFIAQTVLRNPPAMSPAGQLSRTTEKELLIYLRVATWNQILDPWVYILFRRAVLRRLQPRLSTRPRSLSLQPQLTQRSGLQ

[3] = target: T2, Amine oxidase [flavin-containing] A (Homo sapiens, UniProt P21397); format: functional
T2 sequence (P21397 whole entry): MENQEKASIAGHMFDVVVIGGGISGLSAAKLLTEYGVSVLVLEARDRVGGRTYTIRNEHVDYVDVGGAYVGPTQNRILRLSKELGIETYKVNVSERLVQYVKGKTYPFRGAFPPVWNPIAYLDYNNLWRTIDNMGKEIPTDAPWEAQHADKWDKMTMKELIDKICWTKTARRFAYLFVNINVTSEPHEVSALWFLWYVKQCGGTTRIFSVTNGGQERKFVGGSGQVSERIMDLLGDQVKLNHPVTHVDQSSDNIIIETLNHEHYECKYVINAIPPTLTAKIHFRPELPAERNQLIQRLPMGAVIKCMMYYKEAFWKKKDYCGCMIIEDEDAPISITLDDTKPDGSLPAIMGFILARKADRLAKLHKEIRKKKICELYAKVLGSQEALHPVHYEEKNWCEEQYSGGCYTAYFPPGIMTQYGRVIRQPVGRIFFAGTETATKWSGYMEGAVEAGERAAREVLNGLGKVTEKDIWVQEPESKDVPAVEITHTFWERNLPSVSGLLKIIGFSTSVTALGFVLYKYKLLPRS

[4] = target: Acetylcholinesterase (Homo sapiens, UniProt P22303); format: functional
[5] = target: T3, Alpha-2A adrenergic receptor (Homo sapiens, UniProt P08913)
T3 sequence (P08913 whole entry): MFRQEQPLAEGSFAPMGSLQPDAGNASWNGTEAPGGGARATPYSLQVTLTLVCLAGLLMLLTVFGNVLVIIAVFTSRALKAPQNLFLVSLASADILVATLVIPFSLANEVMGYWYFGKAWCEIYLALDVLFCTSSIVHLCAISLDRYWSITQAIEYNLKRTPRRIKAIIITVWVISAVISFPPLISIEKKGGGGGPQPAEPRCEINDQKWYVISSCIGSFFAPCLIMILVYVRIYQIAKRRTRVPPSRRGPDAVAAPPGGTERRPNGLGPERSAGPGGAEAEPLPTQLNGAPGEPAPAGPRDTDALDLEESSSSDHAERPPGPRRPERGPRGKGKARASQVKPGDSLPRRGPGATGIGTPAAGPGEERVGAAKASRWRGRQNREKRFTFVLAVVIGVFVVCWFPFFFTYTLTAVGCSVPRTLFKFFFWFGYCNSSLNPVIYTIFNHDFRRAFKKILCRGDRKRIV

[6] = target: Sodium-dependent noradrenaline transporter (Homo sapiens, UniProt P23975)
[7] = target: T4, 5-hydroxytryptamine receptor 1A (Homo sapiens, UniProt P08908)
T4 sequence (P08908 whole entry): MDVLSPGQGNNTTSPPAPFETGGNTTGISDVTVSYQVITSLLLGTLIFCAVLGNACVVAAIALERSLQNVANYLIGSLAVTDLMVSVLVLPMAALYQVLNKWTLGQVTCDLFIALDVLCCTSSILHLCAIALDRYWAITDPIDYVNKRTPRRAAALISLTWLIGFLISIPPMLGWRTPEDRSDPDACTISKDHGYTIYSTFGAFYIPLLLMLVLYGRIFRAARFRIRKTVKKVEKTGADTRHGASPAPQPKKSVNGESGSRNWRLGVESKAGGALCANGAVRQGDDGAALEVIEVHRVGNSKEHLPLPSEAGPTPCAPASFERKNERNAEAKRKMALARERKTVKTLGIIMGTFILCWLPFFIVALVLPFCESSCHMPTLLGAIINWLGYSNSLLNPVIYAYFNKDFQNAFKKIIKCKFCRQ

[8] = target: Gamma-aminobutyric acid receptor subunit alpha-1/alpha-2/beta-2/gamma-2 (Homo sapiens, UniProt P14867+P18507+P47869+P47870); format: protein-complex assay
[9] = target: Mu-type opioid receptor (Homo sapiens, UniProt P35372)
[10] = target: T5, Alpha-1A adrenergic receptor (Homo sapiens, UniProt P35348); format: functional, cell-based
T5 sequence (P35348 whole entry): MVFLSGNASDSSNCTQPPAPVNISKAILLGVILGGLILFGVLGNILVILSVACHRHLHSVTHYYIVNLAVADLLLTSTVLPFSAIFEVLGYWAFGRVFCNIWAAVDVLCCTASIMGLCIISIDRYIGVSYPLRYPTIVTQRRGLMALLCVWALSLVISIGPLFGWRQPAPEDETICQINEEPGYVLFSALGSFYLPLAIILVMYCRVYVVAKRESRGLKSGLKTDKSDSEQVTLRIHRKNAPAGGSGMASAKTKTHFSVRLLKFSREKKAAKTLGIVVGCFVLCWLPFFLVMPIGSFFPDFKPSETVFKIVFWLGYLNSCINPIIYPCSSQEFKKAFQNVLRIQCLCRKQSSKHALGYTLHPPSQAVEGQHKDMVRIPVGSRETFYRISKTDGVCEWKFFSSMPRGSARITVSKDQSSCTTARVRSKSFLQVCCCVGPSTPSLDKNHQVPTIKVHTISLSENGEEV

[11] = target: Histamine H3 receptor (Homo sapiens, UniProt Q9Y5N1)
[12] = target: 5-hydroxytryptamine receptor 2B (Homo sapiens, UniProt P41595); format: functional, cell-based
[13] = target: Sodium-dependent dopamine transporter (Homo sapiens, UniProt Q01959)
[14] = target: T6, Muscarinic acetylcholine receptor M2 (Homo sapiens, UniProt P08172)
T6 sequence (P08172 whole entry): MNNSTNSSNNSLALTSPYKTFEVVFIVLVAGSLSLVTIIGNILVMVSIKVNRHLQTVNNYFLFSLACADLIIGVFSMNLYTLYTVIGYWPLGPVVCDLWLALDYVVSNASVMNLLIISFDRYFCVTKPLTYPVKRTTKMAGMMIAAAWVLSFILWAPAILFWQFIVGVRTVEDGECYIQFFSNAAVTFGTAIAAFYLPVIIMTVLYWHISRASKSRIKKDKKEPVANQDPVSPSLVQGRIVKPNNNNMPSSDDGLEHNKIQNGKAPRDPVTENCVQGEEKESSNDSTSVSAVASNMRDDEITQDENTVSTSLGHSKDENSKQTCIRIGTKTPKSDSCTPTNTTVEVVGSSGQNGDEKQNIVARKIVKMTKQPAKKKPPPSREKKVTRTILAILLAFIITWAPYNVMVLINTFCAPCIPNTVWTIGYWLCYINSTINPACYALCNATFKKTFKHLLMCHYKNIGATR

[15] = target: T5, Alpha-1A adrenergic receptor; format: functional, cell-based; remark: listed apart in the source
[16] = target: D(1A) dopamine receptor (Homo sapiens, UniProt P21728)
[17] = target: Voltage-gated inwardly rectifying potassium channel KCNH2 (Homo sapiens, UniProt Q12809); format: functional; conditions: read-out: AC50
[18] = target: T7, Adenosine receptor A3 (Homo sapiens, UniProt P0DMS8)
T7 sequence (P0DMS8 whole entry): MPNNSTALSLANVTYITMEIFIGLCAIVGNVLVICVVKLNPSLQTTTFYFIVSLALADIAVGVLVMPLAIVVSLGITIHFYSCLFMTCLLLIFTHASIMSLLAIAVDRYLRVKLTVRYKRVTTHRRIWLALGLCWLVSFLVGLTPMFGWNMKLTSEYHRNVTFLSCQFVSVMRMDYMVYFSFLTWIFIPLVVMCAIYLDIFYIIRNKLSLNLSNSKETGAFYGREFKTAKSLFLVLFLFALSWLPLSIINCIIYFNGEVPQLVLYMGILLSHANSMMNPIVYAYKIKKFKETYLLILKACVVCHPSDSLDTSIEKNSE
Further: assay procedure not described here.

Acetylcholinesterase, sequence (P22303 whole entry): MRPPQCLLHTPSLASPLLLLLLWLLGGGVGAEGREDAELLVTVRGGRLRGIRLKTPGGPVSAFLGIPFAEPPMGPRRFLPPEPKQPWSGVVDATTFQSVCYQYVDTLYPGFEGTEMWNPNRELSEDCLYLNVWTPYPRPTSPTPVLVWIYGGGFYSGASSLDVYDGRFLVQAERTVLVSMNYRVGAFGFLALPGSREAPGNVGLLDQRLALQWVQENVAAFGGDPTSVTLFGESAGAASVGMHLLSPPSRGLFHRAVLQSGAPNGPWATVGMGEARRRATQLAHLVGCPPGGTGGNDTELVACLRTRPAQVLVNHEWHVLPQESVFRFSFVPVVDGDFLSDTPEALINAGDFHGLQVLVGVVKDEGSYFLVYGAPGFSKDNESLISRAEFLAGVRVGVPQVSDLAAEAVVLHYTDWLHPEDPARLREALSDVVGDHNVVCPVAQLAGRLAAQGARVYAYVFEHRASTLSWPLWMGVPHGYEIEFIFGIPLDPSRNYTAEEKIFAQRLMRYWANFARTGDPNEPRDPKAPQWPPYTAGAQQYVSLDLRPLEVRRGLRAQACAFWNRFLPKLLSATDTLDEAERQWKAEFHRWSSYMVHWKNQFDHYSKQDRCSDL
Voltage-gated inwardly rectifying potassium channel KCNH2, sequence (Q12809 whole entry): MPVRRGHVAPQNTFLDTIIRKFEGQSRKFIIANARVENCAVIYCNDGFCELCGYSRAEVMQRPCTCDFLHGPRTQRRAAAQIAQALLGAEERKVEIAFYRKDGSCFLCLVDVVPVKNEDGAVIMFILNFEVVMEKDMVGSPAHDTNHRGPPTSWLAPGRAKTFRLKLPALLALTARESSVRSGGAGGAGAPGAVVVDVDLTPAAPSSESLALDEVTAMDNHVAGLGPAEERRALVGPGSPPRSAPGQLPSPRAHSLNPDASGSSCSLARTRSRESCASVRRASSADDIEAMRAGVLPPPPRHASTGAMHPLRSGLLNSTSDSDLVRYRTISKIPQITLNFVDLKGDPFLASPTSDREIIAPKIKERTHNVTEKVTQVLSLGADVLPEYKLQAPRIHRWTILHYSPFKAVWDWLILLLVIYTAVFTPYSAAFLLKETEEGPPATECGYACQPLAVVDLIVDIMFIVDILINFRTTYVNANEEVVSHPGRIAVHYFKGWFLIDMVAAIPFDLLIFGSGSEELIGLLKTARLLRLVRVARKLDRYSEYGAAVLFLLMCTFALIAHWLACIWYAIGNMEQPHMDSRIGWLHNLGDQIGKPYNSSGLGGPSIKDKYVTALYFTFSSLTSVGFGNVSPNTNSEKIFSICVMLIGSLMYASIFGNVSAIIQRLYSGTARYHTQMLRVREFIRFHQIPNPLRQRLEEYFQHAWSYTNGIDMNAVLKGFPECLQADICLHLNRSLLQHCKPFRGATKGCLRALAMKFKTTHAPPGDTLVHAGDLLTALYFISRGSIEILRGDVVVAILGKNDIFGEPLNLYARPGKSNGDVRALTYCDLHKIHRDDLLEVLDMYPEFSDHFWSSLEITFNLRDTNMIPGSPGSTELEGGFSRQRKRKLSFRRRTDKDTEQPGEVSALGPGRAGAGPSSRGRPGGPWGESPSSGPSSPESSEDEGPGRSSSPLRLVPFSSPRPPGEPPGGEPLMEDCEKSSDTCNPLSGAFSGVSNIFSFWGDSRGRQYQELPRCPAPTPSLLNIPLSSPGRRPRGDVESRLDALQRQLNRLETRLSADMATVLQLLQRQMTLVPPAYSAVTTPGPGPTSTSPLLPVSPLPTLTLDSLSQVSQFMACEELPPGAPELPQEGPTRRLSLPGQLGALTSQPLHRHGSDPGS
D(3) dopamine receptor, sequence (P35462 whole entry): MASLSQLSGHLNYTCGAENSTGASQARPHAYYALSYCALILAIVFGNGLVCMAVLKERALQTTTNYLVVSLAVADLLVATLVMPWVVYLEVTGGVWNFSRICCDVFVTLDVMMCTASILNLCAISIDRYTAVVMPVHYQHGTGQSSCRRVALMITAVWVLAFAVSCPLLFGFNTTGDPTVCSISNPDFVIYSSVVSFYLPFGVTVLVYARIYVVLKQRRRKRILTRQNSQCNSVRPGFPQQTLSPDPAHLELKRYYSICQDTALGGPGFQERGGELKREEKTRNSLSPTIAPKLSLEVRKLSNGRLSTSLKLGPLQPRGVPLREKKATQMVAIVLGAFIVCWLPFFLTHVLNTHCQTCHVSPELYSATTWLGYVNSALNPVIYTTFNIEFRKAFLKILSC
Mu-type opioid receptor, sequence (P35372 whole entry): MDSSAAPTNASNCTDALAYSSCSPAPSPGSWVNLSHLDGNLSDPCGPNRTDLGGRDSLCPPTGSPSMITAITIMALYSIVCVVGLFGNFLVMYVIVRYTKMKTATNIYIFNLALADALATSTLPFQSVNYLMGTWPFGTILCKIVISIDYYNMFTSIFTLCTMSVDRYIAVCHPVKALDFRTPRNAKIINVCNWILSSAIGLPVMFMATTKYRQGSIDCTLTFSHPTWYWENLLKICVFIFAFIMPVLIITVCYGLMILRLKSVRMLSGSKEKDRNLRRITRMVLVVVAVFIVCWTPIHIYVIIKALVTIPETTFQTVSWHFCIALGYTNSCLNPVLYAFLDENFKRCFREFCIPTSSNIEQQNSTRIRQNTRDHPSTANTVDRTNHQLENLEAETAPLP
D(1A) dopamine receptor, sequence (P21728 whole entry): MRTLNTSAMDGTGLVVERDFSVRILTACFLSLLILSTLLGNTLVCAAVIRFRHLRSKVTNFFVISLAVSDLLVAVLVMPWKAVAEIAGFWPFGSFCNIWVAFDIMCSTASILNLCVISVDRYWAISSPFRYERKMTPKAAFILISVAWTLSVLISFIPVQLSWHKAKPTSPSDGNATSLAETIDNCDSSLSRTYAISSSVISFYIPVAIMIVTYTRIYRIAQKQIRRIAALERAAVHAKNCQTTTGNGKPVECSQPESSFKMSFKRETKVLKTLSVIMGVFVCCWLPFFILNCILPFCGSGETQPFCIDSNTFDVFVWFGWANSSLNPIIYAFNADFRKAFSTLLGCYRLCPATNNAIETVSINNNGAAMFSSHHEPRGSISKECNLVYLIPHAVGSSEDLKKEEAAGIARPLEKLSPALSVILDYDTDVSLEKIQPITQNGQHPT
Sodium-dependent dopamine transporter, sequence (Q01959 whole entry): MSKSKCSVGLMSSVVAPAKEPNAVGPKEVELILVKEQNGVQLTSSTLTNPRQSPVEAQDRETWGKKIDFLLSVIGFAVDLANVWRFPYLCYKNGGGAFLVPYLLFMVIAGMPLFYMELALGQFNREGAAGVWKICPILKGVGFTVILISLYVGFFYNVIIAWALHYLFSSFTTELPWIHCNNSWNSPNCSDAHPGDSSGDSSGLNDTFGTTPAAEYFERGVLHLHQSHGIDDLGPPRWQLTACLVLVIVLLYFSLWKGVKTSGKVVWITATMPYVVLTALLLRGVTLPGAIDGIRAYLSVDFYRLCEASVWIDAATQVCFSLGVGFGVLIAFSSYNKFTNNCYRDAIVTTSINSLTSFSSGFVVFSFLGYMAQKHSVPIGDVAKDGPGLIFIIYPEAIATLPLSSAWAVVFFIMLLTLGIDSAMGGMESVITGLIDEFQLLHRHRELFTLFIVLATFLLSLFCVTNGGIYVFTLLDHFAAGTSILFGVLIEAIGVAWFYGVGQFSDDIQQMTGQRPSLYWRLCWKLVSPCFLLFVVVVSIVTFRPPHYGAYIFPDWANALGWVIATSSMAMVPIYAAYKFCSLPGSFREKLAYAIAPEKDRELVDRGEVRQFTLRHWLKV
Histamine H3 receptor, sequence (Q9Y5N1 whole entry): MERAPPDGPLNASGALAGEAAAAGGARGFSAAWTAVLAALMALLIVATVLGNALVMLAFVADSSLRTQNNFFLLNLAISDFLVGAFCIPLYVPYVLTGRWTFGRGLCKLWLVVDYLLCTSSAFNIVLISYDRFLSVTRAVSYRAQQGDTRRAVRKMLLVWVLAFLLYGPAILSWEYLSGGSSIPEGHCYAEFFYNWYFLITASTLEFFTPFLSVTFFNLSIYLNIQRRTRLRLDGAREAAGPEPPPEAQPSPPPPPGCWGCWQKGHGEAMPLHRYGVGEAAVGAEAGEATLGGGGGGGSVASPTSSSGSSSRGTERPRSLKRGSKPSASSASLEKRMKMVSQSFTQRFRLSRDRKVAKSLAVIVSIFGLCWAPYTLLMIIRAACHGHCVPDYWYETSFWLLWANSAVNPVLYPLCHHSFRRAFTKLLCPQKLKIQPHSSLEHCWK
Sodium-dependent noradrenaline transporter, sequence (P23975 whole entry): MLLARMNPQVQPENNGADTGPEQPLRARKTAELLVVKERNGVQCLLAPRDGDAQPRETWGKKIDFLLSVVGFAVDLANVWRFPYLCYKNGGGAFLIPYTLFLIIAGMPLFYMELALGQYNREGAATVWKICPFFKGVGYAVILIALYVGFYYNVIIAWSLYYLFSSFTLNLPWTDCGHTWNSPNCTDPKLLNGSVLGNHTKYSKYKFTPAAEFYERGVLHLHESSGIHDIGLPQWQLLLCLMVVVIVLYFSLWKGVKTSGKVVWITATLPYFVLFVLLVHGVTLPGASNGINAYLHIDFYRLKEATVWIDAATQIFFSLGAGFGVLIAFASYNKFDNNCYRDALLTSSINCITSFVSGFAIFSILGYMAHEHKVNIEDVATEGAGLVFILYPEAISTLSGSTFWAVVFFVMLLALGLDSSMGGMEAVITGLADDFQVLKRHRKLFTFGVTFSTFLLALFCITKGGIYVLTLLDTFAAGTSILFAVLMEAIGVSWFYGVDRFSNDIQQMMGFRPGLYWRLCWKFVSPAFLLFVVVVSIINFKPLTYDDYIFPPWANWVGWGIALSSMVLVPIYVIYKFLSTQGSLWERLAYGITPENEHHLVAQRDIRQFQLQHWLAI

CN(C)CC/C=C1/c2ccccc2Sc2ccc(Cl)cc21 [CHLORPROTHIXENE]
AC50 [1]: 0.003 µM

CCCCC[C@H](O)/C=C/[C@H]1[C@H](O)CC(=O)[C@@H]1CCCCCCC(=O)O [ALPROSTADIL]
AC50 [2]: > 10 µM

Oc1ccccc1 [PHENOL]
AC50 [3]: > 30 µM | AC50 [4]: > 30 µM | AC50 [1]: > 30 µM | AC50 [5]: > 30 µM | AC50 [6]: > 30 µM | AC50 [7]: > 30 µM | AC50 [8]: > 30 µM | AC50 [9]: > 30 µM | AC50 [10]: > 30 µM | AC50 [11]: > 30 µM | AC50 [12]: > 30 µM | AC50 [13]: > 30 µM | AC50 [14]: > 30 µM | AC50 [15]: > 30 µM | AC50 [16]: > 30 µM

CC[N+](CC)(CC)CCOc1cccc(OCC[N+](CC)(CC)CC)c1OCC[N+](CC)(CC)CC [GALLAMINE]
AC50 [4]: > 30 µM | AC50 [17]: 8.99 µM

COc1ccc2c3c1O[C@H]1C[C@@H](O)C=C[C@@]31CCN(C)C2 [GALANTAMINE]
AC50 [17]: > 30 µM

O=C(O)CN(CCN(CC(=O)O)CC(=O)O)CC(=O)O [EDETIC ACID]
AC50 [4]: > 30 µM

CNC(=C[N+](=O)[O-])NCCSCc1ccc(CN(C)C)o1 [RANITIDINE]
AC50 [18]: > 30 µM
